Consider five compounds from ChEMBL document CHEMBL1201862, “PubChem BioAssay data set” (2004).

Some test systems named below: A498; KM12; IGROV-1; K562; NCI-H460; COLO 205; HL-60; PC-3; SK-MEL-5; SW-620; SF-268; MDA-MB-435; HCT-15; ACHN; RPMI-8226; HT-29; SF-295; HOP-62; OVCAR-3; DU-145.
Common to all, as to assay: growth of human tumour cells (NCI), 48 h

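A five-concentration, 48-hour dose response in 96-well plates underlies each endpoint, interpolated linearly between surrounding concentrations. Abbreviation: GI50, concentration required for 50% inhibition of growth.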 Calls of active or inactive are those of the source. No stated cut-off is given here; in the data, active = GI50 up to about 1.1 µM and inactive = higher. A value given as a limit tells only on which side of the number the result lay.

`C/C(=N\N=C(N)N)c1c(C(=O)OCCCCCCOC(=O)c2nc3sccn3c2/C(C)=N/N=C(N)N)nc2sccn12`: the GI50 in the experiment on A498 was > 100 µM (inactive); in the experiment on KM12 it was > 100 µM (inactive); in the experiment with IGROV-1 it was > 100 µM (inactive); with K562, 19.5 µM (inactive); with NCI-H460, > 100 µM (inactive); with COLO 205, > 100 µM (inactive). For the same compound, the GI50 is 32.1 µM (inactive) in the experiment on HL-60; > 100 µM (inactive) with PC-3; 99.1 µM (inactive) in the experiment on SK-MEL-5; > 100 µM (inactive) in the experiment on SW-620; 49.1 µM (inactive) in the experiment with SF-268; > 100 µM (inactive) with MDA-MB-435. For the same compound, the GI50 with HCT-15 was greater than 100 µM; in the experiment with ACHN it was > 100 µM (inactive); in the experiment on RPMI-8226, 85.3 µM (inactive); with HT-29, > 100 µM (inactive).
For the compound `NN/C(=N\S(=O)(=O)c1cc2ccccc2o1)Nc1ccc(Cl)cc1`, the GI50 in the experiment on A498 was > 100 µM (inactive); in the experiment with SF-295, 63.5 µM (inactive); in the experiment with KM12, > 100 µM (inactive); in the experiment with IGROV-1 it was 53 µM (inactive); in the experiment on K562, > 100 µM (inactive); with NCI-H460, > 100 µM (inactive). Further, the GI50 in the experiment with COLO 205 is > 100 µM (inactive); in the experiment with HOP-62 it was 48.8 µM (inactive); in the experiment on OVCAR-3, 36.6 µM (inactive); with HL-60, > 100 µM (inactive); in the experiment with PC-3, > 100 µM (inactive); in the experiment with SK-MEL-5, > 100 µM (inactive). Besides, the GI50 in the experiment on SW-620 is > 100 µM (inactive); with SF-268 it was 33.9 µM (inactive); with HCT-15, greater than 100 µM; with DU-145 it was > 100 µM (inactive); in the experiment on ACHN it was > 100 µM (inactive); in the experiment with RPMI-8226, > 100 µM (inactive). Moreover, the GI50 in the experiment with HT-29 is > 100 µM (inactive).
For `O=C(COc1cc(=O)oc2ccccc12)c1ccccc1`, the GI50 in the experiment on A498 is 60.7 µM (inactive); in the experiment on SF-295 it was 29.1 µM (inactive); in the experiment with KM12, 37.9 µM (inactive); in the experiment on IGROV-1, 26.9 µM (inactive); with K562, > 100 µM (inactive); in the experiment with NCI-H460, > 100 µM (inactive). The GI50 in the experiment with HOP-62 was 37.8 µM (inactive); in the experiment with OVCAR-3, 19.4 µM (inactive); in the experiment on HL-60, > 100 µM (inactive); in the experiment on SK-MEL-5, 37.7 µM (inactive); in the experiment on SW-620, 44.8 µM (inactive); with SF-268, 48.5 µM (inactive). The GI50 is greater than 100 µM in the experiment with HCT-15; > 100 µM (inactive) in the experiment on DU-145; 19.8 µM (inactive) in the experiment with ACHN; > 100 µM (inactive) in the experiment with RPMI-8226; 22.6 µM (inactive) with HT-29.
Take `Cc1ccccc1NC(=O)c1c(C)oc2c1C(=O)c1ccccc1C2=O`: the GI50 in the experiment on A498 is 63.5 µM (inactive); with SF-295, 40.3 µM (inactive); in the experiment with KM12 it was 30.9 µM (inactive); with IGROV-1, > 71.9 µM (inactive); with K562, 22.4 µM (inactive); with NCI-H460, 32.4 µM (inactive). The GI50 is 53.3 µM (inactive) in the experiment on COLO 205; > 56.1 µM (inactive) in the experiment on HOP-62; 14.4 µM (inactive) in the experiment with OVCAR-3; 19.8 µM (inactive) with HL-60; 13.2 µM (inactive) in the experiment on SK-MEL-5; 19.7 µM (inactive) in the experiment on SW-620. Also, the GI50 is 31.8 µM (inactive) in the experiment with SF-268; 32.1 µM in the experiment with HCT-15; 36.9 µM (inactive) with ACHN; 22.6 µM (inactive) with RPMI-8226; 35.9 µM (inactive) in the experiment on HT-29.
With `COc1cc(/C=N/n2c(Cc3ccc(Cl)cc3)n[nH]c2=O)cc(OC)c1OC`, the GI50 in the experiment with A498 was > 100 µM (inactive); in the experiment with SF-295 it was > 100 µM (inactive); in the experiment on KM12 it was 50 µM (inactive); with K562, > 100 µM (inactive); in the experiment on NCI-H460, 33.5 µM (inactive); in the experiment on COLO 205, > 100 µM (inactive). The GI50 is 37.6 µM (inactive) in the experiment on HOP-62; 85.9 µM (inactive) in the experiment with OVCAR-3; > 100 µM (inactive) with PC-3; > 100 µM (inactive) in the experiment with SW-620; 46.3 µM (inactive) with SF-268; > 100 µM (inactive) in the experiment on MDA-MB-435. Also, the GI50 is greater than 100 µM in the experiment with HCT-15, > 100 µM (inactive) in the experiment with ACHN and > 100 µM (inactive) with HT-29.
